Entries after “also recorded” stand apart in the source; their conditions may differ.
Assays:
THP-1 cells = assay: Chemotaxis assay in modified Boyden chambers; type: cell-based, human; conditions: for chemotactic response of THP-1 cells: Boyden chamber, 90 minutes, migration as percent of control, over the concentration range analyzed; for concentration giving maximal chemotactic response: THP-1 cells, FIG. 4 panels A and C; for concentration at which very potent chemotactic activity is seen: human THP-1 monocytoid cells (and murine LB6 fibroblastic cells)
Description: FIG. 3. […] For each set of experiments, migration toward the assay medium served as control (random cell migration) and is referred to as 100% migration. All experiments were performed in triplicate; the number of cells counted per high power field (ten fields for each condition) is expressed as percent of the control values. The proteins were purified as described in the Methods section. Data points represent the mean of three independent experiments (+SEM). The constructs used are depicted in FIG. 2.
Chemotaxis analysis were performed using modified Boyden chambers containing polyvinylpyrrolidone polycarbonate filters (13 mm diameter, […]) coated with collagen type I ([…] in PBS pH 7.4). The coated filters were washed with medium supplemented with 0.2% bovine serum albumin (BSA) and then placed in the Boyden apparatus. After acid wash, 2×10^5 THP-1 cells suspended in serum-free medium were added above the filter in the Boyden chamber. Purified mutants were diluted in serum-free medium at the indicated concentrations and added below the filter in the lower chamber. The chambers were incubated in a humidified incubafor at 37° C. in 5% CO2 in air for 90 minutes. Filters were removed, the upper surface scraped free of cells, fixed in methanol and stained with crystal violet. For each set of experiments, migration toward the assay medium served as control (random cell migration) and is referred to as 100% migration. All experiments were performed in triplicate; data are reported as number of cells counted for high power field (ten fields for each condition) and expressed as percentage of the control values. Data points represent the mean of three independent experiments (+SEM). When cells of the fibroblast-type or cancer cells were employed for the assay, the time required for migration was higher and the Boyden chamber were usually incubated overnight.

[1] = test system: cells binding to D1(1-92)- or peptide-coated plates; assay: Panning / cell adhesion on coated plastic plates; type: cell-based; conditions: for adhesion of mammalian cells to plastic plates coated with the substance: bacterial-grade plastic dishes coated with the substance; for inhibition of adhesion of cells onto D1(1-92): plates coated with D1(1-92)
Description: However, when those plates are coated with peptide 1 or 2 (or domain D1-1-92) or with recombinant forms of these peptides, they adhere because they express on their surface specific D1(1-92)-binding proteins. The adhesion can be measured.
As a positive control (i.e. to set up the technique), cells (106) exposing a high number of uPAR molecules are used and the panning is carried out on plates coated with a specific anti-uPAR antibody. As a negative control, the same cells but now not expressing uPAR are employed. The cells employed as negative controls are LB6, 32D, 3T3 fibroblasts, B-lymphoid cell lines and others. As positive controls, THP-1 cells, LB6/uPAR, 32D/uPAR and other expressing cell lines are employed.
For the screening assay, the same cells employed as negative controls (106) are used, and the plates are coated with domain D1(1-92) or domain D1(1-87) (control). The ability of the cells to bind to the plates is tested after 30-300 minutes incubation at 37° C. by microscopic inspection, or by staining the plates with Coomassie Blue. The same can be done using different techniques.
The ability of peptides 1- or 2-coated plates to specifically bind the THP-1 cells is the basis for the screening technique, as any compound capable of inhibiting this binding is a potential antiinflammatory agent, inhibiting chemotaxis. […] Such compounds, therefore, can be tested as inhibitors of chemotaxis, employing the methods outlined in examples 1-3. Coating can also be carried out with other recombinant forms of the SRSRY (SEQ ID NO:7) sequence in which the epitope is synthesized in fusion with other proteins. Suitable proteins are ferritin (Sidoli et al. (1993)), thioredoxin, GST, beta galactosidase, human serum albumin.

p56/p59hck = p56/p59hck immunoprecipitation and in vitro kinase assay after treatment of THP-1 cells; type: cell-based, human
Description: FIG. 5. In this figure, the stimulating effect of peptide 1 on the activity of Hck kinase of THP-1 cells is shown. THP-1 cells were metabolically labelled with [35S]-TransLabel, acid washed, and either mock-treated or treated with 0.1 nM peptide 1 (AVTYSRSRYLEC, (SEQ ID NO:1)) for the indicated time at 37° C. Radiolabelled cell lysates were immunoprecipitated (Resnati et al., 1996) using an affinity-purified rabbit polyclonal anti-p56/p59hck antibody.
(A) An aliquot from each immunoprecipitate was directly analyzed by SDS-PAGE to control that equal amount of p56/p59hck were present during in vitro kinase assay.
(B) The remainder of each immunoprecipitate was subjected to in vitro kinase assay in presence of […] of [g-32P]ATP (˜3000 Ci/mmol, Amersham) and […] rabbit muscle enolase for 5 minutes at room temperature. Eluates were thus analyzed by SDS-PAGE autobiography (7.5% acrylamide).
The mixture of chymotrypsin fragments of suPAR, like the uPA/uPAR interaction, induces chemotaxis by transiently activating the p56/p59hck protein kinase (Resnati et al., 1996). If human uPAR-related peptides containing the SRSRY (SEQ ID NO:7) motif induce a chemotactic response on THP-1 cells though the same mechanism exploited by the uPA/uPAR interaction (i.e. by binding to the unidentified adaptor), they should also activate p56/p59hck. THP-1 cells were metabolically labelled with [35S]-TransLabel, acid washed, and either mock-treated or treated with 0.1 nM peptide 1 (AVTYSRSRYLEC (SEQ ID NO:1)) for the indicated time at 37° C. Radiolabelled cell lysates were immunoprecipitated (Resnati et al.,1996) using an affinity-purified rabbit polyclonal anti-p56/p59hck antibody. An aliquot from each immunoprecipitate was directly analyzed by SDS-PAGE to control that equal amount of p56/p59hck were present during in vitro kinase assay (FIG. 5, panel A). The remainder of each immunoprecipitate was subjected to in vitro kinase assay in presence of […] of [g-32P)]ATP (˜3000 Ci/mmol, Amersham) and […] rabbit muscle enolase (substrate) for 5 minutes at room temperature. Eluates were thus analyzed by SDS-PAGE autobiography (7.5% acrylamide). […] The effect was very rapid, since p56/pS9hck stimulation was already- evident after 2 minutes, reached a maximum after […] and returned to the basal level 30 minutes after the addition of the peptide. No effect on p56/p59hck activity was observed when 0.1 nM of the corresponding scrambled peptide was used in the assay (data not shown). The time-course of the effect is identical to that observed with the addition of ATF or of chymotryptic uPAR fragments to THP-1 cells and reported previously (Resnati et al., 1996).

uPAR = uPAR (Homo sapiens, UniProt Q03405); conditions: read-out: affinity of binding to uPAR; cited from earlier work
Sequence of uPAR (Q03405 23-305): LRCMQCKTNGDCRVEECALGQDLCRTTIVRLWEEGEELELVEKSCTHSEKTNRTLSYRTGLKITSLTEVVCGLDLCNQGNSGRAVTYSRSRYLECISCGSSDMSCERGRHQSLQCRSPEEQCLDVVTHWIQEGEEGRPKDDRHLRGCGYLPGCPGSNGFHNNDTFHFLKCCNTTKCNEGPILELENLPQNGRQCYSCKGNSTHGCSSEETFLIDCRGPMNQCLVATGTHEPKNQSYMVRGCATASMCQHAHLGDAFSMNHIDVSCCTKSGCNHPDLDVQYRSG

| Substance | chemotactic response of THP-1 cells (THP-1 cells) | concentration giving maximal chemotactic response (THP-1 cells) | concentration at which very potent chemotactic activity is seen (THP-1 cells) | adhesion of mammalian cells to plastic plates coated with the substance [1] | inhibition of adhesion of cells onto D1(1-92) [1] | further results |
| --- | --- | --- | --- | --- | --- | --- |
| YTARLWGGTLLT [peptide 3, reference compound] | no effect on cell migration |  |  |  |  |  |
| AVTYSRSRYLEC [peptide 1] | dose-dependent chemotactic effect; also recorded: very potent activity | 0.1 pM | 0.1 pM | adhere | inhibit adhesion | time at which p56/p59hck stimulation is already evident (p56/p59hck; 0.1 nM peptide): 2 min; autophosphorylation of p56/p59hck (p56/p59hck; 0.1 nM peptide, 37° C.): increase; phosphorylation of the exogenous substrate (rabbit muscle enolase) (p56/p59hck; 0.1 nM peptide, 37° C.): increase; time of return of p56/p59hck activity to the basal level (p56/p59hck; 0.1 nM peptide, after addition of the peptide): 30 min |
| vitronectin: protein bound by uPAR domains D2 and D3 |  |  |  |  |  | Kd (uPAR): 10 to 20 nM |
| TLVEYYSRASCR [reference compound] | no effect on cell migration |  |  |  | cannot | chemotactic response of THP-1 cells (THP-1 cells; listed as peptide-1 scrambled): do not; effect on p56/p59hck activity (p56/p59hck; 0.1 nM (data not shown)): No effect |
| SRSRYLEC [peptide 2] | dose-dependent chemotactic effect; also recorded: very potent activity | 0.1 pM | 0.1 pM | adhere | inhibit adhesion |  |

From patent US6462170B1, “UPAR mimicking peptide” (Fondazione Centro San Raffaele del Monte Tabor, priority 1997, dated 2002)
